Key:
HL-60 cells = settings: an APL cell line; cited from earlier work
EZH2 = EZH2 (Homo sapiens, UniProt Q15910); settings: also inhibits other methyltransferases; cited from earlier work
[1] = system: Y641 and A677 mutants of EZH2; settings: cited from earlier work
H3K27me3 [2] = assay: CAA: H3K27me3 on nascent chromatin of TCL cells (HUT78); format: cell-based, human
Experimental: FIG. 10B: HUT78 cells were induced with 0.2 μM of RXR for the indicated times. Cells were labeled with EdU for 15 min, and CAA was performed between Biotin (EdU) and H3K27me3 antibody. PLA only is shown in the lower panel.
FIGS. 15A-15C illustrate the effect of EPZ and small molecule ligand treatment on TF binding. […] Cells were immunostained with antibodies to LXRa (left), and GR (right). Nuclei stained by DAPI are shown in the lower panel. […] In FIG. 15C, T-ALL CCRF-HSB-2 cells were untreated or treated for 6 hr with 5 μM of ISX9, or pre-treated with 0.5 μM EPZ and then treated for 6 hr with 5 μM of ISX9. In FIG. 15B and FIG. 15C, DNA was labeled with EdU for 15 min. […]
(§1) Chromatin assembly assay: Cells were grown on chamber slides, pulse-labeled with 5 μM EdU and fixed at room temperature with 4% formaldehyde in PBS for 15 min, washed with PBS, and permeabilized with 0.3% Triton for 15 min. […] The results of CAA experiments shown in FIG. 1A were quantified by counting the number of PLA signals per EdU-labeled nuclei in 50 cells of each of the three independent experiments. The nature of the results in the rest of the figures alleviated the need to quantify the results of these assays.
New approaches to study the fate of chromatic-associated proteins following DNA replication were developed. […] Reliable pulse-chase EdU labeling in cells can be detected from 3-5 min to several hours. […]

GATA-1 = assay: CAA: recruitment of GATA-1 to nascent DNA in CD34+ HPCs; format: cell-based, human; settings: CD34+ HPCs induced with EPO 12 hr
Description: (§2) FIGS. 5A-5B illustrate that fast accumulation of post-replicative H3K27me3 leads to decreased recruitment of lineage-determining TFs to DNA. In FIG. 5A, CD34^+ cells were induced toward myeloid differentiation with G-CSF (left) or M-CSF (middle), or erythroid differentiation with EPO (right) for 12 hr. During the induction period cells were left untreated (upper panels) or treated with the GSKJ4 inhibitor of the H3K27me3 de-methylases (KDMs) UTX and JMJD3 (lower panels). DNA was pulse-labeled with EdU for 15 min and chased to 1 hr. CAA was performed between nascent DNA (biotin) and H3K27me3 (left columns) or (in the right columns) C/EBPa (left), PU.1 (middle) or GATA-1 (right). […] In FIG. 5B, quantification of the results of CAA experiments was determined by counting the number of PLA signals per EdU-labeled nuclei in 50 cells/each of the three independent experiments.
as §1, with “assays. […]” for “assays.”

C/EBPa = assay: CAA: recruitment of C/EBPa to nascent DNA in CD34+ HPCs; format: cell-based, human; settings: CD34+ HPCs induced with G-CSF 12 hr
Description: as §2
as §1, with “assays. […]” for “assays.”

H3K27me3 [3] = assay: Chromatin assembly assay (CAA): H3K27me3 on nascent DNA of CD34+ HPCs; format: cell-based, human; settings: CD34+ HPCs exposed to GSKJ4 during 12 hr induction; EdU 15 min, chased to 1 hr
Description: as §2
as §1, with “assays. […]” for “assays.”

T-bet = assay: CAA: recruitment of T-bet to nascent DNA in T cells (Th1); format: cell-based; settings: Th1 pathway, 10 μM GSKJ4 for 5 hr
Experimental: (§3) FIG. 6 illustrates that fast accumulation of post-replicative H3K27me3 leads to decreased recruitment of lineage-determining TFs to DNA during differentiation of T cells. Naive T cells were primed for 12 hr and stimulated to Th1 (left, middle) or Th2 (right) pathways. Cells were untreated or treated with 10 μM of GSKJ4 for 5 hr, labeled with EdU for 15 min (left) or pulse-labeled for 1 hr (middle and right). CAA was performed with antibodies to H3K27me3 (left), T-bet (middle) and GATA3 (right).
(§4) Chromatin assembly assay: Cells were grown on chamber slides, pulse-labeled with 5 μM EdU and fixed at room temperature with 4% formaldehyde in PBS for 15 min, washed with PBS, and permeabilized with 0.3% Triton for 15 min. Cells were subjected to Click-iT reaction with biotin-azide for 30 min. […] The results of CAA experiments shown in FIG. 1A were quantified by counting the number of PLA signals per EdU-labeled nuclei in 50 cells of each of the three independent experiments. The nature of the results in the rest of the figures alleviated the need to quantify the results of these assays.
(§5) New approaches to study the fate of chromatic-associated proteins following DNA replication were developed. […] Cells can be then examined for specificity of interactions (e.g. specific PLA signals are detected only in EdU-labeled nuclei), and by assessing tissue specificity using relevant protein markers. […]

GATA3 = assay: CAA: recruitment of GATA3 to nascent DNA in T cells (Th2); format: cell-based; settings: Th2 pathway, 10 μM GSKJ4 for 5 hr
Experimental: as §3, §4, §5

PU.1 = assay: CAA: recruitment of PU.1 to nascent DNA in CD34+ HPCs; format: cell-based, human; settings: CD34+ HPCs induced with M-CSF 12 hr
Description: as §2
as §1, with “assays. […]” for “assays.”

LXRa [4] = assay: CAA: binding of LXRa to nascent DNA in HUT78 cells; format: cell-based, human; settings: 6 hr 1 μM GW3965, no EPZ
Experimental: (§6) FIGS. 15A-15C illustrate the effect of EPZ and small molecule ligand treatment on TF binding. […] Cells were immunostained with antibodies to LXRa (left), and GR (right). Nuclei stained by DAPI are shown in the lower panel. […] In FIG. 15C, T-ALL CCRF-HSB-2 cells were untreated or treated for 6 hr with 5 μM of ISX9, or pre-treated with 0.5 μM EPZ and then treated for 6 hr with 5 μM of ISX9. In FIG. 15B and FIG. 15C, DNA was labeled with EdU for 15 min. In FIG. 15B, CAA was performed with antibodies to H3K27me3 (left), LXRa (middle), and GR (right). In FIG. 15C, with antibody to MEF-2. PLA signals are shown in the lower panel. The schemes above show the state of condensation of nascent chromatin.
as §4

LXRa [5] = assay: Immunostaining of LXRa localisation in HUT78 cells; format: cell-based, human; settings: 1 μM GW3965, untreated: mostly in the cytoplasm
Experimental: as §6

[6] = system: HH, HUT78, Jurkat E6.1 and CCRF-HSB-2 cells; assay: Cell viability screen of TCL cells (flow cytometry with Sytox Green); format: cell-based, human; settings: HUT78, Jurkat E6.1, CCRF-HSB-2, with and without 1 μM EPZ 24 hrs, then 10 days
Experimental: (§7) Sezary syndrome (SS) cells HH (FIG. 12A) and HUT78 (FIG. 12B), and T-cell acute lymphoblastic leukemia (T-ALL) cells Jurkat E6.1 (FIG. 12C) and CCRF-HSB-2 (FIG. 12D) were grown with and without 1 μM EPZ for 24 hrs. Indicated small molecule compounds were added in indicated concentrations and cells were grown for an additional 10 days.
To test the idea that restoring the ability of cells to de-condense nascent chromatin may enable reprogramming of TCLs, a two-step induction was devised: Cells were first treated with the inhibitors of the EZH1/2 HMTs, and then induced with small molecule ligands known to activate specific TFs. […] A library of small molecules was compiled that included ligands for nuclear hormone receptors, cytokines, ligands for GPCRs, and small molecules that are used to reprogram mature cells into pluripotent cells (FIG. 11). Since different ligands may induce reprogramming of leukemic cells into different lineages, it was not possible to use specific differentiation markers at initial stages of these screens, and therefore cell viability was used as a readout for the initial screens. The earliest effects on cell viability were observed after 5 days of treatment, and therefore screens for cell viability (flow cytometry with Sytox green) were performed at days 8-11. […]

MEF2 = assay: CAA: binding of MEF2 to nascent chromatin in CCRF-HSB-2 cells; format: cell-based, human; settings: 5 μM ISX9 6 hr, with or without 0.5 μM EPZ pre-treatment
Experimental: as §6, §4

[7] = system: AML cell lines THP-1, K562 and KG-1a; assay: Cell viability of AML cell lines (flow cytometry with Sytox Green); format: cell-based, human; settings: THP-1, K562, KG-1a; performed as in FIG. 12
Experimental: as §7
The assays were performed as described in FIG. 12.
Similar experiments were performed with the AML cell lines THP-1, K562 and KG-1a.

all tested leukemias = assay: In vitro assays with cultured leukemic cells of various leukemia types; format: cell-based; settings: cell lines of various leukemia types
Experimental: Leukemic cells from patients can be established in short-term culture for about 10 days. During this time, these cells are screened for the best possible reprogramming agent, which causes reprogramming (e.g. differentiation), loss of cell viability and apoptosis. […] These assays include cell viability, apoptosis induction, and examining cell differentiation markers. Thus, within 7-10 days, the most efficient molecules are determined, which induce reprogramming of leukemic cells, which leads to inhibition of cell viability and induction of apoptosis in individual patients. Indeed, similar studies using a number of different cell lines of various leukemia types have seen differences in responses to various reprogramming agents (FIG. 14).

THP-1 Luc+ cells = assay: THP-1 Luc+ xenograft AML model, bioluminescence; format: in vivo; settings: NRG mice, THP-1 Luc+ 1×10^6/mouse; 30 days post injection
Description: NRG were mice injected with THP-1 Luc+ cells, an especially aggressive AML line (1×10^6/mouse). 14 days post-injection, mice were imaged and left untreated (Controls), treated with EPZ alone, Dexa alone and ISX9 alone for 16 days, or pre-treated (2 days) with EPZ and co-treated with Dexa and EPZ (Dexa+EPZ) or with ISX9 and EPZ (ISX9+EPZ) for 14 additional days.

GR target genes = assay: qRT-PCR of differentiation-associated (GR target) genes in THP-1, SEM and HH cells; format: cell-based, human; settings: 24 hr
Experimental: Graphs show induction of transcription of GR target genes. […] Graphs show induction of transcription of GR target genes. FIG. 17C The T-ALL HH cells were untreated (Untr) or treated with 1 μM EPZ for 24 hr. […] Bottom graph, cells were then treated with 1 μM of ISX-9 for 72 hr or with combinations of EPZ and ISX9. Analysis by qRT-PCR.
Gene expression analysis by RT-qPCR: Total RNA was isolated directly from freshly collected hESCs with TRIzol and for mESCs with High Pure RNA Isolation Kit. cDNA was synthesized by using 1 μg total RNA in a 20 μL reaction with Superscript III and oligo (dT) for hESC or random hexamers (Life Tech) for mECS. After reverse transcription was complete, one microliter of RNase H was added to each reaction tube, and the tubes were incubated for 20 min at 37° C. before proceeding to PCR. Real-time PCR was carried out on a 7500 Real-Time PCR System using the 2× Power SYBR green PCR master mix. GAPDH was used as an internal control. All PCR products were checked by running an agarose gel for the first time and by doing dissociation assay every time to exclude the possibility of multiple products. PCR analyses were conducted in triplicate for each sample.
Graphs show induction of transcription of GR target genes. […] Graphs show induction of transcription of GR target genes. […]

EZH2, sequence (Q15910 whole entry): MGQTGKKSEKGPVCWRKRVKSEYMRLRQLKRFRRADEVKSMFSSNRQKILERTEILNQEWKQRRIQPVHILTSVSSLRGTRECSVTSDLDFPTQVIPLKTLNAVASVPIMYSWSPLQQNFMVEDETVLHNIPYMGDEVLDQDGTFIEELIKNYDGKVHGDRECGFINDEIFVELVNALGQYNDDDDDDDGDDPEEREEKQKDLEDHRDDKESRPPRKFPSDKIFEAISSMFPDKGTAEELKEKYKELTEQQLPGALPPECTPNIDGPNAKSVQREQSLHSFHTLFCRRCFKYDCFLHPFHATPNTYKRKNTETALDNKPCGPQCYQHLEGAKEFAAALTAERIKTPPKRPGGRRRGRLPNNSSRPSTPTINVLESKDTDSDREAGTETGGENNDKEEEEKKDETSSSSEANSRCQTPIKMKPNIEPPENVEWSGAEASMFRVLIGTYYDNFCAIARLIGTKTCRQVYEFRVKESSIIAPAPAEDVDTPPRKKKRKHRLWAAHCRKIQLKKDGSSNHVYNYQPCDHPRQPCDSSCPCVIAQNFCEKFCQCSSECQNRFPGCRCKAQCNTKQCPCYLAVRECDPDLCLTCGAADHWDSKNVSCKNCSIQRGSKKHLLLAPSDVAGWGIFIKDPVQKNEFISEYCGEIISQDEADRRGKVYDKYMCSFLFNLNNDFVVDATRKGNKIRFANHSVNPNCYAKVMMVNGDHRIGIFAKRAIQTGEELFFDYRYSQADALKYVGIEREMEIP
EZH2, sequence (O75530 whole entry partner): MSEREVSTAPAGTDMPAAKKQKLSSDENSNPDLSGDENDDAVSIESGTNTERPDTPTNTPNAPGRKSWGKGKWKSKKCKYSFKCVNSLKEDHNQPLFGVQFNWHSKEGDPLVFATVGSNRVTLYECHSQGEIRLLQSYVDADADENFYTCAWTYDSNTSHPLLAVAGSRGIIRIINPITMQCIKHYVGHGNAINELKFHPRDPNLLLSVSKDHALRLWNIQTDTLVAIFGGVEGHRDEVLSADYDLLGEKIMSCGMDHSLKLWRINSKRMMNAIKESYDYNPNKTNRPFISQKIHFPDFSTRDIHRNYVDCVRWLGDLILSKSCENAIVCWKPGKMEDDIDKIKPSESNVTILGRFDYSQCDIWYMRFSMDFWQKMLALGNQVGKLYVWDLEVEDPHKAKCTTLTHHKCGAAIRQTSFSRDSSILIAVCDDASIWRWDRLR
EZH2, sequence (Q15022 whole entry partner): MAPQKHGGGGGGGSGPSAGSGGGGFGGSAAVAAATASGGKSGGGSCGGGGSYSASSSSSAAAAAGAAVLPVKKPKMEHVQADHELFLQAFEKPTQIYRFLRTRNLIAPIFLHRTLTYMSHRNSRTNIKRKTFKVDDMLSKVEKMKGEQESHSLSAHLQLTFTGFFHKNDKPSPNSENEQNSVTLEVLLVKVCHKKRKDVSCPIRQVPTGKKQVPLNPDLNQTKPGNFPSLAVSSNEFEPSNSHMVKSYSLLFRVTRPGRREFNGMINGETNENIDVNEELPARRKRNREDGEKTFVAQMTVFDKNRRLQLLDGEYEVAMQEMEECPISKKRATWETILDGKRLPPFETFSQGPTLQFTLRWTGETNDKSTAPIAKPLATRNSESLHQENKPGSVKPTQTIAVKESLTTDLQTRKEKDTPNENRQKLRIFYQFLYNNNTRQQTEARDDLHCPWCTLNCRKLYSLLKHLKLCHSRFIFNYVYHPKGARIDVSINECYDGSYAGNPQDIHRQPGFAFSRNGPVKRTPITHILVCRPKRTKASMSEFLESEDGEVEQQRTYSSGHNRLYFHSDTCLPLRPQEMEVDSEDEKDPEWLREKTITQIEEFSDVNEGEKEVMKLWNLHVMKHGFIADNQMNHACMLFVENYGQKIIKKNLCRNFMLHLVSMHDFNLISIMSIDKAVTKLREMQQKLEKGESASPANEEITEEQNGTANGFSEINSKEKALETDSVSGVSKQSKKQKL

For `CC1=C(/C=C/C(C)=C/C=C/C(C)=C/C(=O)O)C(C)(C)CCC1` [ATRA, all-trans retinoic acid], the “terminal differentiation of cells” value (HL-60 cells) is listed as “around 90%”.
For `Nc1nccc2c1ncn2[C@@H]1C=C(CO)[C@@H](O)[C@H]1O` [DZNep, 3-deazaneplanocin A], the “specificity to EZH2” value (EZH2) is listed as “not specific to EZH2”.
In the case of `Cc1cc(C)c(CNC(=O)c2cc(-c3ccc(CN4CCOCC4)cc3)cc3c2cnn3C2CCCC2)c(=O)[nH]1` [EPZ005687], the “inhibition of the Y641 and A677 mutants of EZH2” value [1] is listed as “can also inhibit”.
For `CC[C@H](C)n1cc(C)c2c(C(=O)NCc3c(C)cc(C)[nH]c3=O)cc(-c3ccc(N4CCNCC4)nc3)cc21` [GSK126], the “levels of global and nascent chromatin marked with H3K27me3” value (H3K27me3 [2]; 24 hr, 0.5-1 μM range, tested by CAA) was “marked decrease”.
For `CCOC(=O)CCNc1cc(N2CCc3ccccc3CC2)nc(-c2ccccn2)n1` [GSKJ4], the “recruitment of the TF GATA-1” value (GATA-1) was “strongly inhibited”, the “recruitment of the TF C/EBPa” value (C/EBPa) was “strongly inhibited” and the “accumulation of H3K27me3 following DNA replication” value (H3K27me3 [3]) was “strongly increased”. For the same molecule, the “recruitment of T-bet to nascent DNA” value (T-bet) was “inhibition”, the “recruitment of GATA3 to nascent DNA” value (GATA3) was “inhibition” and the “recruitment of the TF PU.1” value (PU.1) was “strongly inhibited”.
With `O=C(O)Cc1cccc(OCCCN(Cc2cccc(C(F)(F)F)c2Cl)CC(c2ccccc2)c2ccccc2)c1` [GW3965] the “binding of LXRa to DNA, ligand alone” value (LXRa [4]) was “not able to bind to DNA” and the “localisation of LXRa after induction with ligand” value (LXRa [5]) was “exclusively nuclear”.
With `O=C(NC1CC1)c1cc(-c2cccs2)on1` [ISX-9] the “inhibition of cell viability of TCL cells” value [6] was “effective”, the “binding of activated MEF2 to nascent chromatin” value (MEF2) was “occurs only following de-condensation of chromatin by EPZ” and the “inhibition of cell viability of AML cell lines” value [7] was “induced inhibition of cell viability in all AML cell lines”. For the same molecule, the “efficiency as reprogramming agent across leukemias” value (all tested leukemias) was “efficient in all tested leukemias” and the “THP-1 cell growth / outgrowth (bioluminescence fold-changes) vs untreated control animals” value (THP-1 Luc+ cells) was “little effect”.
In the case of `C[C@]12C=CC(=O)C=C1CC[C@@H]1[C@@H]2C(=O)C[C@@]2(C)[C@H]1CC[C@]2(O)C(=O)CO` [Prednisone], the “level of H3K27me3 on 15 min-labeled nascent DNA” value (H3K27me3 [2]; HUT78 cells, 0.2 μM, through 10 hr of induction) is reported as “remained unchanged” and the “expression of differentiation-associated genes vs untreated cells” value (GR target genes) is reported as “no statistical difference”.
For arsenic trioxide [ATO], the “terminal differentiation of cells” value (HL-60 cells) is listed as “around 90%”.
